Assay results from patent publication US11142526B2, “Spirocycle compounds and methods of making and using same” (H. Lundbeck A/S, priority 2017, dated 2021).
Read-outs that look alike come from different tables or passages of the source.

Experiments:
MAGL [1] = molecular target: MAGL (Homo sapiens (Human), UniProt Q99685); assay: In vitro competitive activity-based protein profiling (gel-based, FP-Rh or HT-01 probe); type: biochemical
Protocol: In Vitro Competitive Activity-Based Protein Profiling.
Proteomes (human prefrontal cortex or cell membrane fractions) (50 μL, 1.0 mg/mL total protein concentration) were preincubated with varying concentrations of inhibitors at 37° C. After 30 min, FP-Rh or HT-01 (1.0 μL, 50 μM in DMSO) was added and the mixture was incubated for another 30 min at room temperature. Reactions were quenched with SDS loading buffer (15 μL—4×) and run on SDS-PAGE.

MAGL [2] = molecular target: MAGL (Mus musculus (Mouse), UniProt O35678); assay: In vitro competitive activity-based protein profiling, mouse brain proteome; type: biochemical; conditions: for inhibition at 1 µM: mouse; for IC50: mouse brain
Chain of MAGL (Mus musculus (Mouse), UniProt O35678) (O35678 whole entry): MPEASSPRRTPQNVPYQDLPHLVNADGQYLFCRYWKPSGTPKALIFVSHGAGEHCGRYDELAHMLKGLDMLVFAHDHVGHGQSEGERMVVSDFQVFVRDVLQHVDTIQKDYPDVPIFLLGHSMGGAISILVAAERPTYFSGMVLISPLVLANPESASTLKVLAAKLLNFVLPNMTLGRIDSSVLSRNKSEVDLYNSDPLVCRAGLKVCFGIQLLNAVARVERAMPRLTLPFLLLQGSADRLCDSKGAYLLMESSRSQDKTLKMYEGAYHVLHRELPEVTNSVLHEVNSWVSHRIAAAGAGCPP

[3] = human PFC (prefrontal cortex), read-out: MAGL % Inhibition at 1 μM (human PFC)
[4] = human PC3, read-out: MAGL Human PC3 (IC50)
[5] = human PFC (prefrontal cortex), read-out: MAGL Human PFC (IC50)
[6] = human PC3, read-out: MAGL % Inhibition at 1 μM (human PC3)

Chain of MAGL (Homo sapiens (Human), UniProt Q99685) (Q99685 whole entry): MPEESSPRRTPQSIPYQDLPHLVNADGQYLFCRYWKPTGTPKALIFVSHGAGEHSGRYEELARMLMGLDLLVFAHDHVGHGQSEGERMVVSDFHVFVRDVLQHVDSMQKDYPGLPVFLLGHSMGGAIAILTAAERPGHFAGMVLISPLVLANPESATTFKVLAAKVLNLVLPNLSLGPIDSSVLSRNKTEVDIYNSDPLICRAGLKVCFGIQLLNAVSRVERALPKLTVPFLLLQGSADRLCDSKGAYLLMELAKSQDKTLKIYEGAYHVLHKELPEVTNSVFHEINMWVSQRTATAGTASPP

Compound | inhibition at 1 µM (MAGL [1]; [3]) [%] | IC50 (MAGL [1]; [4]) [nM] | inhibition at 1 µM (MAGL [2]) [%] | IC50 (MAGL [2]) [nM] | IC50 (MAGL [1]; [5]) [nM] | inhibition at 1 µM (MAGL [1]; [6]) [%]
Cc1nc(C)c(C(=O)N2CCCC23CCN(C(=O)OC(C(F)(F)F)C(F)(F)F)CC3)o1 [Example 128, 1,1,1,3,3,3-Hexafluoropropan-2-yl 1-(2,4-dimethyloxazole-5-carbonyl)-1,8-diazaspiro[4.5] decane-8-carboxylate] | > 75 | < 100 | > 75 | – | – | –
O=C(OC(C(F)(F)F)C(F)(F)F)N1CCC2(CCCN2C(=O)c2ccc3scnc3c2)CC1 [Example 86, 1,1,1,3,3.3-Hexafluoropropan-2-yl 1-(benzo[d]thiazole-5-carbonyl)-1,8-diazaspiro[4.5] decane-8-carboxylate] | – | < 100 | > 75 | < 100 | – | –
Cc1ccc2sc(C(=O)N3CCCC34CCN(C(=O)OC(C(F)(F)F)C(F)(F)F)CC4)cc2c1 [Example 17, 1,1,1,3,3,3-Hexafluoropropan-2-yl 1-(5-methylbenzo[b]thiophene-2-carbonyl)-1,8-diazaspiro[4.5]decane-8-carboxylate] | > 75 | – | > 75 | – | < 100 | –
O=C(O)Cn1cc(Cl)c(C(=O)N2CCCC23CCN(C(=O)OC(C(F)(F)F)C(F)(F)F)CC3)n1 [Example 173, 2-(4-Chloro-3-(8-(((1,1,1,3,3,3-hexafluoropropan-2-yl)oxy)carbonyl)-1,8-diazaspiro[4.5]decane-1-carbonyl)-1H-pyrazol-1-yl)acetic acid] | > 75 | – | < 25 | – | – | –
Cc1cc(C(F)(F)F)n2nc(C(=O)N3CCCC34CCN(C(=O)OC(C(F)(F)F)C(F)(F)F)CC4)c(Cl)c2n1 [Example 121, 1,1,1,3,3,3-Hexafluoropropan-2-yl 1-(3-chloro-5-methyl-7-(trifluoromethyl)pyrazolo[1,5-a]pyrimidine-2-carbonyl)-1,8-diazaspiro[4.5] decane-8-carboxylate] | > 75 | – | > 75 | – | < 100 | –
O=C(OC(C(F)(F)F)C(F)(F)F)N1CCC2(CCCN2Cc2cnc(N3CCN(C4CC4)CC3)s2)CC1 [Example 132, 1,1,1,3,3,3-Hexafluoropropan-2-yl 1-((2-(4-cyclopropylpiperazin-1-yl)thiazol-5-yl)methyl)-1,8-diazaspiro[4.5] decane-8-carboxylate] | > 75 | < 100 | > 75 | – | – | –
O=C(OC(C(F)(F)F)C(F)(F)F)N1CCC2(CCCN2C(=O)c2ncccn2)CC1 [Example 12, 1,1,1,3,3,3-Hexafluoropropan-2-yl 1-(pyrimidine-2-carbonyl)-1,8-diazaspiro[4.5]decane-8-carboxylate] | < 25 | – | < 25 | – | – | –
CC(C)N1CCn2c(nnc2C(=O)NC2(C)CCN(C(=O)OC(C(F)(F)F)C(F)(F)F)CC2)C1 [Example 36, 1,1,1,3,3,3-Hexafluoropropan-2-yl 4-(7-isopropyl-5,6,7,8-tetrahydro-[1,2,4]triazolo[4,3-a]pyrazine-3-carboxamido)-4-methylpiperidine-1-carboxylate] | > 75 | < 100 | > 75 | – | – | > 75
CN(C(=O)c1cnc2cccnn12)C1(C)CCN(C(=O)OC(C(F)(F)F)C(F)(F)F)CC1 [Example 168, 1,1,1,3,3,3-Hexafluoropropan-2-yl 4-methyl-4-(N-methylimidazo[1,2-b]pyridazine-3-carboxamido) piperidine-1-carboxylate] | > 75 | < 100 | > 75 | – | – | > 75
O=C(OC(C(F)(F)F)C(F)(F)F)N1CCC2(CCCN2C(=O)c2cc3cccc(F)c3s2)CC1 [Example 96, 1,1,1,3,3,3-Hexafluoropropan-2-yl 1-(7-fluorobenzo[b]thiophene-2-carbonyl)-1,8-diazaspiro[4.5] decane-8-carboxylate] | – | < 100 | > 75 | < 100 | < 100 | –
CN(C(=O)C1(c2ncccn2)CC1)C1(C)CCN(C(=O)OC(C(F)(F)F)C(F)(F)F)CC1 [Example 177, 1,1,1,3,3,3-Hexafluoropropan-2-yl 4-methyl-4-(N-methyl-1-(pyrimidin-2-yl)cyclopropane-1-carboxamido) piperidine-1-carboxylate] | > 75 | – | > 75 | – | – | > 75
O=C(OC(C(F)(F)F)C(F)(F)F)N1CCC2(CCCN2C(=O)c2ccn(Cc3ccccc3)n2)CC1 [Example 91, 1,1,1,3,3,3-Hexafluoropropan-2-yl 1-(1-benzyl-1H-pyrazole-3-carbonyl)-1,8-diazaspiro[4.5] decane-8-carboxylate] | – | < 100 | > 75 | < 100 | – | –
O=C(OC(C(F)(F)F)C(F)(F)F)N1CCC2(CCCN2C(=O)c2cnc(Cl)nc2N2CCCC2)CC1 [Example 117, 1,1,1,3,3,3-Hexafluoropropan-2-yl 1-(2-chloro-4-(pyrrolidin-1-yl)pyrimidine-5-carbonyl)-1,8-diazaspiro [4.5]decane-8-carboxylate] | > 75 | < 100 | > 75 | – | – | –
O=C(OC(C(F)(F)F)C(F)(F)F)N1CCC2(CCCN2C(=O)c2ccc3nccn3c2)CC1 [Example 85, 1,1,1,3,3,3-Hexafluoropropan-2-yl 1-(imidazo[1,2-a]pyridine-6-carbonyl)-1,8-diazaspiro[4.5] decane-8-carboxylate] | – | < 100 | > 75 | 100 to 1000 | – | –
O=C(OC(C(F)(F)F)C(F)(F)F)N1CCC2(CCCN2C(=O)c2cnn3c2NCCC3)CC1 [Example 147, 1.1,1,3,3,3-Hexafluoropropan-2-yl 1-(4,5,6,7-tetrahydropyrazolo [1,5-a]pyrimidine-3-carbonyl)-1,8-diazaspiro[4.5] decane-8-carboxylate] | > 75 | < 100 | > 75 | – | – | > 75
O=C(OC(C(F)(F)F)C(F)(F)F)N1CCC2(CCCN2C(=O)c2c(C(F)(F)F)nc3n2CCCC3)CC1 [Example 139, 1,1,1,3,3,3-Hexafluoropropan-2-yl 1-(2-(trifluoromethyl)-5,6,7,8-tetrahydroimidazo [1,2-a]pyridine-3-carbonyl)-1,8-diazaspiro[4.5] decane-8-carboxylate] | > 75 | < 100 | > 75 | – | – | –
COc1ccnc(C2(C(=O)N3CCCC34CCN(C(=O)OC(C(F)(F)F)C(F)(F)F)CC4)CC2)n1 [Example 203, 1,1,1,3,3,3-Hexafluoropropan-2-yl 1-(1-(4-methoxypyrimidin-2-yl)cyclopropane-1-carbonyl)-1,8-diazaspiro [4.5]decane-8-carboxylate] | > 75 | < 100 | > 75 | – | – | > 75
[2H]C1(N2CCn3cc(C(=O)N(C)C4(C)CCN(C(=O)OC(C(F)(F)F)C(F)(F)F)CC4)nc3C2)CC1 [Example 25, 1,1,1,3,3,3-hexafluoropropan-2-yl 4-(7-(cyclopropyl-1-d)-N-methyl-5,6,7,8-tetrahydroimidazo[1,2-a]pyrazine-2-carboxamido)-4-methylpiperidine-1-carboxylate] | – | < 100 | > 75 | – | – | > 75
